# Assay results from patent US4080450A, “2-Carbamoyl-1,2,4,5-tetrahydro-3H-2-benzazepin-3-ones” (U C B, Societe Anonyme, priority 1976, dated 1978).
# Where “and” joins values, the source holds several entries; their conditions need not be identical. Equal entries are not always repeated. Where two headings read alike, the source gives them in different places.
# Columns and labels:
# [1] = spinal fixation time test (elementary model of memory); assay type: in vivo, rat; details: i.p.
# Text: Action on the mnemic processes is shown, in particular, by a reduction in the time for spinal fixation, a test which has been described in the literature (C. GIURGEA and F. MOURAVIEFF-LESUISSE, Arch.Int.Pharmacodyn. 191,(2),(1971),279) as an elementary model of memory and which is endowed with a pharmacological reactivity in good correlation with the clinical physiopathology. In the rat, after unilateral lesion of the cerebellum, there is a postural asymmetry of the hind paws. This asymmetry may persist, even after spinal section, if the animal has been in this situation for a sufficiently long period of time. This time, which is called the spinal fixation time, is 45 minutes under the experimental conditions. On the other hand, if spinal section is performed before the expiry of this period, for example 35 minutes after the onset of the asymmetry, the latter disappears. […] Conversely, any compound which allows the rats to retain the asymmetry (thus achieving spinal fixation) when the spinal section is carried out after 35 minutes, is regarded as being active.
# Under these conditions, administration of a compound according to the present invention, for example 2-methyl-carbamoyl-1,2,4,5-tetrahydro-3H-2-benzazepin-3-one (compound A) or 4,5-dimethyl-2-methylcarbamoyl-1,2,4,5-tetrahydro-3H-2-benzazepin-3-one(compound B), produces the following effects: […]
# [2] = active avoidance test (memory retention); assay type: in vivo, rat; details: for minimal effective dose: Rattus norvegicus, sc, subcutaneous, minimum dose which lowers the stimulus to below 110 g
# Text: The principle of the active avoidance test, which has been developed in our laboratories and used for this purpose, may be described as follows: the withdrawal reaction of a rat's paw subjected to increasing and measured pressure is observed. The pressure at which the withdrawal reaction is produced is called the reaction threshold. The latter is expressed in grams and thus corresponds to the minimum pressure which, when applied to the paw of the animals causes withdrawal. It is read off directly from a scale on the apparatus used. […] A minimum of 20 rats are used for each test (10 treated rats and 10 control rats), the active dose being defined as the minimum dose which lowers the stimulus to below 110 g.
# *Stimulus (expressed in g.) initiating the avoidance reaction 24 hours
# after the first stimulation.
# [3] = Brevatonal test (protection against hypoxic type aggressions); assay type: in vivo, mice; details: i.p.
# Protocol: At the doses used, this curarizing agent brings about a respiratory depression which, in turn, brings about a hypoxi-hypercapnic syndrome. A compound capable of protecting the brain during this short period of hypoxia ensures survival. The compounds are administered to groups of 10 mice one hour before the injection of the curarizing agent; concurrently herewith, a control group of 10 mice is given a physiological salt solution prior to the curarizing agent. For each compound, the proportion of mice which survive is compared to the proportion of control mice which survive by the "Fisher exact probability test". This test, called the Brevatonal test, has also been developed in our laboratories.
# Intraperitoneal administration (i.p.) of compounds according to the present invention, namely, 2-methylcarbamoyl-1,2,4,5-tetrahydro-3H-2-benzazepin-3-one (compound A), 4,5-dimethyl-2-methylcarbamoyl-1,2,4,5-tetrahydro-3H-2-benzazepin-3-one (compound B) and 4-n-butyl-2-methylcarbamoyl-1,2,4,5-tetrahydro-3H-2-benzazepin-3-one (compound I) under these conditions produced the effects summarized in the following Table II.
# [4] = toxicity, lethal dose (LD50); details: in vivo, ip; rat, intraperitoneal
# Protocol: The new compounds according to the present invention appear to have a remarkably low toxicity. For example, for compound A, the lethal dose (LD50) in the rat, when administered intraperitoneally, is more than 1000 mg./kg.
# [5] = 30 mg./kg. (0.2 mmole/kg.), Giurgea and Mouravieff-Lesuisse, cited from earlier work
smiles,measurement,setting,value
"CNC(=O)N1Cc2ccccc2[C@@H](C)[C@@H](C)C1=O (relative stereo) [B, 4,5-dimethyl-2-methylcarbamoyl-1,2,4,5-tetrahydro-3H-2-benzazepin-3-one]",spinal fixation after 35 minutes (animals),[1]; 24 mg./kg. (0.1 mmole/kg.),three animals out of seven
same,minimal effective dose,[2],1.23 mg/kg and 5 µmol/kg
same,Stimulus initiating the avoidance reaction 24 hours after the first stimulation,"[2]; subcut. dose 0.49 mg./kg., control (dose 0) 152",124 g
same,Stimulus initiating the avoidance reaction 24 hours after the first stimulation,"[2]; subcut. dose 1.23 mg./kg., control (dose 0) 152",107 g
same,"Proportion of survivors, treated animals","[3]; 25 mg./kg. (0.1 mmole/kg.), control 1/10",7/10
"CNC(=O)N1Cc2ccccc2CCC1=O [A, 2-methylcarbamoyl-1,2,4,5-tetrahydro-3H-2-benzazepin-3-one]",spinal fixation after 35 minutes (animals),[1]; 70 mg./kg. (0.3 mmole/kg.),three animals out of five
same,minimal effective dose,[2],2.18 mg/kg and 10 µmol/kg
same,Stimulus initiating the avoidance reaction 24 hours after the first stimulation,"[2]; subcut. dose 1.09 mg./kg., control (dose 0) 159",120 g
same,Stimulus initiating the avoidance reaction 24 hours after the first stimulation,"[2]; subcut. dose 2.18 mg./kg., control (dose 0) 159",89 g
same,LD50,[4],> 1000 mg/kg
same,"Proportion of survivors, treated animals","[3]; 70 mg./kg. (0.32 mmole/kg.), control 1/10",6/10
"CC1CC(=O)N(C(=O)N2CCOCC2)Cc2ccccc21 (stereo not shown) [C, 5-methyl-2-morpholinocarbonyl-1,2,4,5-tetrahydro-3H-2-benzazepin-3-one]",minimal effective dose,[2],2.88 mg/kg and 10 µmol/kg
same,Stimulus initiating the avoidance reaction 24 hours after the first stimulation,"[2]; subcut. dose 0.28 mg./kg., control (dose 0) 173",116 g
same,Stimulus initiating the avoidance reaction 24 hours after the first stimulation,"[2]; subcut. dose 2.88 mg./kg., control (dose 0) 173",98 g
"CNC(=O)N1Cc2ccc(Cl)cc2CCC1=O [D, 7-chloro-2-methylcarbamoyl-1,2,4,5-tetrahydro-3H-2-benzazepin-3-one]",minimal effective dose,[2],2.52 mg/kg and 10 µmol/kg
same,Stimulus initiating the avoidance reaction 24 hours after the first stimulation,"[2]; subcut. dose 1.26 mg./kg., control (dose 0) 157",122 g
same,Stimulus initiating the avoidance reaction 24 hours after the first stimulation,"[2]; subcut. dose 2.52 mg./kg., control (dose 0) 157",100 g
"CNC(=O)N1Cc2ccc(Cl)cc2CC(C)C1=O (stereo not shown) [E, 7-chloro-4-methyl-2-methylcarbamoyl-1,2,4,5-tetrahydro-3H-2-benzazepin-3-one]",minimal effective dose,[2],0.53 mg/kg and 2 µmol/kg
same,Stimulus initiating the avoidance reaction 24 hours after the first stimulation,"[2]; subcut. dose 0.26 mg./kg., control (dose 0) 163",115 g
same,Stimulus initiating the avoidance reaction 24 hours after the first stimulation,"[2]; subcut. dose 0.53 mg./kg., control (dose 0) 163",83 g
"CCCCNC(=O)N1Cc2ccccc2CCC1=O [F, 2-n-butylcarbamoyl-1,2,4,5-tetrahydro-3H-2-benzazepin-3-one]",minimal effective dose,[2],< 0.2 mg/kg and < 0.8 µmol/kg
same,Stimulus initiating the avoidance reaction 24 hours after the first stimulation,"[2]; subcut. dose 0.2 mg./kg., control (dose 0) 159",92 g
"CCCCNC(=O)N1C(=O)CCc2cc(OC)ccc2C1c1ccccc1 (stereo not shown) [G, 2-n-butylcarbamoyl-7-methoxy-1-phenyl-1,2,4,5-tetrahydro-3H-2-benzazepin-3-one]",Stimulus initiating the avoidance reaction 24 hours after the first stimulation,[2]; subcut. dose 0.72 mg./kg.,106 g
same,Stimulus initiating the avoidance reaction 24 hours after the first stimulation,[2]; subcut. dose 3.66 mg./kg.,95 g
"CN(C)C(=O)N1Cc2ccccc2CCC1=O [H, 2-dimethylcarbamoyl-1,2,4,5-tetrahydro-3H-2-benzazepin-3-one]",minimal effective dose,[2],2.32 mg/kg and 10 µmol/kg
same,Stimulus initiating the avoidance reaction 24 hours after the first stimulation,[2]; subcut. dose 2.32 mg./kg.,90 g
"CCCCC1Cc2ccccc2CN(C(=O)NC)C1=O (stereo not shown) [I, 4-n-butyl-2-methylcarbamoyl-1,2,4,5-tetrahydro-3H-2-benzazepin-3-one]","Proportion of survivors, treated animals","[3]; 27 mg./kg. (0.1 mmole/kg.), control 1/10",7/10
same,"Proportion of survivors, treated animals","[3]; 87 mg./kg. (0.32 mmole/kg.), control 1/10",8/10
"NC(=O)CN1CCCC1=O [piracetam, reference compound]",minimal effective dose,[2],3.5 mg/kg and 25 µmol/kg
same,Stimulus initiating the avoidance reaction 24 hours after the first stimulation,"[2]; subcut. dose 1.5 mg./kg., control (dose 0) 153",120 g
same,Stimulus initiating the avoidance reaction 24 hours after the first stimulation,"[2]; subcut. dose 3.5 mg./kg., control (dose 0) 153",90 g
same,retention of the earlier test,"[2]; tested 24 hours later, versus control animals",significant degree of retention
same,"Proportion of survivors, treated animals","[3]; 45 mg./kg. (0.32 mmole/kg.), control 0/10",1/10
same,"Proportion of survivors, treated animals","[3]; 142 mg./kg. (1 mmole/kg.), control 2/10",4/10
same,"Proportion of survivors, treated animals","[3]; 454 mg./kg. (3.2 mmole/kg.), control 1/10",8/10
same,spinal fixation after 35 minutes (animals),[5]; same conditions,four animals out of nine
same,activity in spinal fixation test,[5],active
